# Data taken from patent publication US8486979B2, “1,2,4 oxadiazole compounds and methods of use thereof” (AbbVie Inc., priority 2006, dated 2013).
# Counter-ions that a name gives are not always drawn.
# Assays:
# [1] = molecular target: T1, human α4β2 nicotinic acetylcholine receptor (Homo sapiens, UniProt P17787+P43681); experiment: Calcium flux (FLIPR) assay, HEK-293 cells expressing human α4β2 nAChR; format: cell-based; settings: for Activity (allosteric effects—potentiation of fluorescence responses): α4β2 positive allosteric modulation, calcium fluorescence (FLIPR); for potency (EC50 values) for activation of α4β2 nAChRs in the presence vs absence of PAM: presence and absence of α4β2 PAM Compound 1, FIG. 5
# T1 construct: expressed in transfected cells
# T1 sequence (P43681 29-627 limits assumed): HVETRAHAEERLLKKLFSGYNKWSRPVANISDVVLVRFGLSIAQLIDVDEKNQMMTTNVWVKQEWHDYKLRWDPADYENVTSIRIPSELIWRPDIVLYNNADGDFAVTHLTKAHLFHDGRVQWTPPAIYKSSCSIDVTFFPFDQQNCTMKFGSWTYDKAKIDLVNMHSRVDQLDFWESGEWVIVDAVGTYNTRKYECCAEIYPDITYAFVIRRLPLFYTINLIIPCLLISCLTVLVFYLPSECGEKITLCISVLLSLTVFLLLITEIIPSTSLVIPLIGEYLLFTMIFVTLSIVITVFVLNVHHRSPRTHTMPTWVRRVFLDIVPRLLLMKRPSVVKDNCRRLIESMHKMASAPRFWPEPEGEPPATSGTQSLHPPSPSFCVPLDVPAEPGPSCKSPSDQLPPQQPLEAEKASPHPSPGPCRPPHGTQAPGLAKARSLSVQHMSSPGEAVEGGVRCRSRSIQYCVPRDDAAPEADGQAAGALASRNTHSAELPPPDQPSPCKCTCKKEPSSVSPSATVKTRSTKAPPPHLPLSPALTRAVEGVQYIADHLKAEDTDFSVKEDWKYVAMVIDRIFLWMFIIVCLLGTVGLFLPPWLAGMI
# T1 sequence (P17787 26-502): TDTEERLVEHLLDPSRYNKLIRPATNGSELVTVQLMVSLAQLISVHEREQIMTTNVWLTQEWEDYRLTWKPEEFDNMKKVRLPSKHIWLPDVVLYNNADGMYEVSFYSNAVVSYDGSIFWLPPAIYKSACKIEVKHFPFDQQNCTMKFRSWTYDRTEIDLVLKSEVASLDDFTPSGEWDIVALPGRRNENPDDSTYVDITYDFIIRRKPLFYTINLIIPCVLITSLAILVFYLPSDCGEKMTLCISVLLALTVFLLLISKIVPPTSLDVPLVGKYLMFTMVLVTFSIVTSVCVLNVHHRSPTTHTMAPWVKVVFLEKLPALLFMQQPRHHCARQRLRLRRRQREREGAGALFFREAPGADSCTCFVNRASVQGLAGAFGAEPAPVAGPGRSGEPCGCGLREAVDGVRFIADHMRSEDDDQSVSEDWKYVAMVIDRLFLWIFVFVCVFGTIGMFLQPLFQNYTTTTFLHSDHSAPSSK
# Experimental: Experimental Procedure: Human embryonic kidney (HEK) 293 cells stably expressing human α4β2 or α3β4 combinations are grown to confluency in 162 cm^2 tissue culture flasks in DMEM media supplemented with 10% FBS and 25 μg/ml zeocin and 200 μg/ml hygromycin B. IMR-32 neuroblastoma cells (ATCC) are grown to confluency in 162 cm^2 tissue culture flasks in minimum essential media supplemented with 10% FBS and 1 mM sodium pyruvate, 1% non-essential amino acids and 1% antibiotic-antimycotic. The cells are then dissociated using cell dissociation buffer and 100-150 μl per well of 3.5×10^5 cells/ml cell suspension (˜50,000-100,000 cells/well) was plated into 96-well black plates (poly-D-lysine precoated) with clear bottom and maintained for 24-48 hours in a tissue culture incubator at 37° C. under an atmosphere of 5% CO2: 95% air. Other clonal cell lines or primary cell cultures that express endogenous α4* nicotinic receptors may also be used in this assay. Calcium flux was measured using calcium-3 assay kit (Molecular Devices, Sunnyvale, Calif.) or fluo-4 (Invitrogen). A stock solution of the dye was prepared by dissolving each vial supplied by the vendor in Hank's balanced salt solution buffer (HBSS) or 150 mM NMDG, 20 mM CaCl2 containing 10 mM HEPES, The stock solution was diluted 1:20 using the same buffer before use. The growth media was removed from the cells. The cells were loaded with 100 μl of the dye per well and incubated at room temperature for up to one hour for HEK 293 clonal stable cell lines or 30 minutes-45 minutes at 37° C. for IMR-32 cells Fluorescence measurements were read simultaneously from all the wells by a Fluorometic Imaging Plate Reader (FLIPR) at an excitation wavelength of 480 nm and an emission wavelength of 520 nm. Baseline fluorescence was measured for the first 6 seconds at which 3× concentrations of modulator/test compounds were added to the cell plate at 50 μl and incubated for five minutes. The fluorescence intensity was captured every second for the first 1 minute followed by every 5 seconds for an additional 4 minutes. This procedure was followed by 50 μl of 4× concentration of agonist and readings were taken for a period of 3-5 minutes as described above. Data was normalized to maximal responses and plotted as a function of concentration. The concentration dependence of changes fluorescence responses was fitted by nonlinear regression analysis (GraphPad Prism, San Diego, Calif.) to obtain EC50 values.
# The positive allosteric modulator effects on α4β2 nAChRs exemplified by 3-(3-pyridin-3-yl-1,2,4-oxadiazol-5-yl)benzonitrile (Compound 1) and 3,5-di(pyridin-3-yl)-1,2,4-oxadiazole (Compound 2) can be identified by measuring their potentiating effect to fluorescence changes in intracellular calcium using a fluorimetric plate reader. The potentiating effect of an α4β2 modulator on α4β2 receptor can also be illustrated by concentration responses to α4β2 agonists, for example 5-[(2R)-azetidin-2-ylmethoxy]-2-chloropyridine (Compound A) and (3R)-1-pyridin-3-ylpyrrolidin-3-amine (Compound B), in presence of a fixed concentration of PAM. […] In addition to compound A and B, other known nicotinic agonists can be left-shifted in presence of α4β2 PAM such as […]. […] This could lead to preferential effects of the agonist at the desired subtype, viz., α4β2, without effects at other nicotinic receptor subtypes and thus enhancing in vivo selectivity of the agonist.
# The activity (allosteric effects—potentiation of fluorescence responses) ranges are defined as follows; “a” denotes as activity range from 200-400%, “b” denotes an activity range from 150-200%, “c” denotes an activity range from 120-150% and “d” denotes an activity range 90-120%. […]
# [2] = system: nerve injury induced mechanical allodynia; experiment: Chung model of neuropathic pain (L5-L6 spinal nerve ligation, tactile allodynia, von Frey); format: in vivo; settings: rat
# Experimental: Animals: Male Sprague-Dawley rats (Charles River, Wilmington, Mass.) weighing 120-150 grams at time of surgery were utilized. These animals were group housed in AAALAC approved facilities at Abbott Laboratories in a temperature-regulated environment with lights on between 0700 and 2000 hours. Food and water was available ad libitum except during testing. All animal handling and experimental protocols were approved by an institutional animal care and use committee (IACUC). All experiments were performed during the light cycle.
# Chemicals: 5-[(2R)-Azetidin-2-ylmethoxy]-2-chloropyridine (Compound A, 1-100 nmol/kg) and 3-(3-pyridin-3-yl)-1,2,4-oxadiazol-5-yl)benzonitrile (α4β2 PAM Compound 1, 1-35 μmol/kg, i.p.) was used. Compound A and D was prepared in saline and injected in solution in a volume of 2 ml/kg body weight 30 minutes before behavioral evaluation. Compound 1,3-(3-(pyridin-3-yl)-1,2,4-oxadiazol-5-yl)benzonitrile, was prepared in 30% hydroxybetacyclodextrin and injected in solution in a volume of 4 ml/kg body weight immediately before Compound A. For studies with Compound D, the doses tested ranged from 0.3-30 μmol/kg i.p.
# Experimental Procedure: To produce neuropathic pain, tight ligation of the L5-L6 spinal nerves was performed. As previously described in detail by Kim and Chung (Kim S H and Chung J M (1992), Pain 50: 355), following sterilization procedures, a 1.5 cm incision was made dorsal to the lumbosacral plexus. The paraspinal muscles (left side) were separated from the spinous processes, the L5 and L6 spinal nerves isolated, and tightly ligated with 3-0 silk thread. Following hemostasis, the wound was sutured and coated with antibiotic ointment. The rats were allowed to recover and then placed in a cage with soft bedding for 7-14 days before behavioral testing for mechanical allodynia.
# Tactile allodynia was measured using calibrated (force; g) von Frey filaments (Stoelting, Wood Dale, Ill.). Briefly, rats were placed into individual plexiglass containers and allowed to acclimate for 15-20 minutes before testing. Withdrawal threshold was determined by increasing and decreasing stimulus intensity and estimated using a Dixon non-parametric test (Chaplan et al., 1994; Chaplan S R, Bach F W, Pogrel J W, Chung J M and Yaksh T L (1994) J Neurosci Methods 53:55-63). Only rats with threshold scores ≦4.5 g were considered allodynic and utilized in further testing. A percent of maximal possible effect (% M.P.E.) of the tested compounds was calculated according to the formula: ([post-drug threshold]−[baseline threshold])/([maximum threshold]−[baseline threshold])×100%, where maximum threshold was equal to 15 g.
# Statistical analysis: Analysis of the in vivo data was carried out using analysis of variance. Where appropriate, Bonferroni's Multiple Comparison Test was used for post-hoc analysis. The level of significance was set at p less than 0.05. Data are presented as mean ±S.E.M.
Structure (SMILES),Activity (allosteric effects—potentiation of fluorescence responses) [1],other results
"NS(=O)(=O)c1cccc(-c2nc(-c3cccnc3)no2)c1 [Example 35, 3-(3-(pyridin-3-yl)-1,2,4-oxadiazol-5-yl)benzenesulfonamide]",a (“a” denotes as activity range from 200-400%),–
"Fc1ccc(-c2nc(-c3ccnnc3)no2)cc1F [Example 83, 5-(3,4-Difluorophenyl)-3-(pyridazin-4-yl)-1,2,4-oxadiazole hydrochloride]",a (“a” denotes as activity range from 200-400%),–
"CS(=O)(=O)c1cccc(-c2nc(-c3cccnc3)no2)c1 [Example 41, 5-(3-(methylsulfonyl)phenyl)-3-(pyridin-3-yl)-1,2,4-oxadiazole]",c (“c” denotes an activity range from 120-150%),–
"CN[C@@H](C)C/C=C/c1cncc(OC(C)C)c1 [ispronicline, reference compound]",–,potency (EC50 values) for activation of α4β2 nAChRs in the presence vs absence of PAM [1]: increase in the presence of the positive allosteric modulator
"N#Cc1ccc(-c2nc(-c3cccnc3)no2)cc1 [Example 19, 4-(3-(pyridin-3-yl)-1,2,4-oxadiazol-5-yl)benzonitrile]",b (“b” denotes an activity range from 150-200%),–
"Oc1cncc(-c2nc(-c3cccnc3)no2)c1 [Example 9, 5-(3-(pyridin-3-yl)-1,2,4-oxadiazol-5-yl)pyridin-3-ol]",d (“d” denotes an activity range 90-120%),–
"Clc1ccc(OC[C@H]2CCN2)cn1 [Compound A, 5-[(2R)-azetidin-2-ylmethoxy]-2-chloropyridine]",–,"efficacy in neuropathic pain ([2]; 1 nmol/kg, alone): ineffective; mechanical paw withdrawal threshold (PWT) ([2]; 0.03 μmol/kg, i.p., alone): 5.6 ± 0.3 g; efficacy in neuropathic pain ([2]; Compound A 1 nmol/kg combined with varying doses of PAM Compound 1): dose-dependent increase in efficacy"
"O=[N+]([O-])c1cccc(-c2nc(-c3cccnc3)no2)c1 [Example 40, 5-(3-nitrophenyl)-3-(pyridin-3-yl)-1,2,4-oxadiazole]",a (“a” denotes as activity range from 200-400%),–
"c1cncc(-c2noc(-c3cccnc3)n2)c1 [Example 2, 3,5-di(pyridin-3-yl)-1,2,4-oxadiazole]",a (“a” denotes as activity range from 200-400%),–
"Fc1ccc(-c2nc(-c3cncnc3)no2)cc1F [Example 101, 5-(3,4-difluorophenyl)-3-(pyrimidin-5-yl)-1,2,4-oxadiazole tosylate]",a (“a” denotes as activity range from 200-400%),–
"O=c1[nH]c2cc(-c3nc(-c4cccnc4)no3)ccc2o1 [Example 125, 5-(3-(pyridin-3-yl)-1,2,4-oxadiazol-5-yl)benzo[d]oxazol-2(3H)-one]",a (“a” denotes as activity range from 200-400%),–
"Brc1cncc(-c2nc(-c3cccnc3)no2)c1 [Example 5, 5-(5-bromopyridin-3-yl)-3-(pyridin-3-yl)-1,2,4-oxadiazole]",c (“c” denotes an activity range from 120-150%),–
"O=c1[nH]c2cc(-c3noc(-c4cccnc4)n3)ccc2o1 [Example 132, 5-(5-(pyridin-3-yl)-1,2,4-oxadiazol-3-yl)benzo[d]oxazol-2(3H)-one]",a (“a” denotes as activity range from 200-400%),–
"O=c1ccc(-c2noc(-c3cccnc3)n2)c[nH]1 [Example 55, 5-(5-(pyridin-3-yl)-1,2,4-oxadiazol-3-yl)pyridin-2(1H)-one]",c (“c” denotes an activity range from 120-150%),–
"N#Cc1cccc(-c2noc(-c3ccc(Cl)nc3)n2)c1 [Example 76, 3-(5-(6-chloropyridin-3-yl)-1,2,4-oxadiazol-3-yl)benzonitrile]",b (“b” denotes an activity range from 150-200%),–
"N#Cc1cccc(-c2noc(-c3cccnc3)n2)c1 [Example 3, 3-(5-(pyridin-3-yl)-1,2,4-oxadiazol-3-yl)benzonitrile]",a (“a” denotes as activity range from 200-400%),–
"Clc1cc(-c2noc(-c3cccnc3)n2)ccn1 [Example 42, 3-(2-chloropyridin-4-yl)-5-(pyridin-3-yl)-1,2,4-oxadiazole]",c (“c” denotes an activity range from 120-150%),–
"N#Cc1cccc(-c2noc(-c3ccc(F)nc3)n2)c1 [Example 4, 3-(5-(6-fluoropyridin-3-yl)-1,2,4-oxadiazol-3-yl)benzonitrile]",b (“b” denotes an activity range from 150-200%),–
"c1cnc2cc3c(cc2n1)[C@@H]1CNC[C@H]3C1 [varenicline, reference compound]",–,potency (EC50 values) for activation of α4β2 nAChRs in the presence vs absence of PAM [1]: increase in the presence of the positive allosteric modulator
"Cc1ccc(-c2noc(-c3cccc(C#N)c3)n2)cn1 [Example 7, 3-(3-(6-methylpyridin-3-yl)-1,2,4-oxadiazol-5-yl)benzonitrile]",b (“b” denotes an activity range from 150-200%),–
"CC(=O)c1cccc(-c2nc(-c3cccnc3)no2)c1 [Example 68, 1-(3-(3-(pyridin-3-yl)-1,2,4-oxadiazol-5-yl)phenyl)ethanone]",b (“b” denotes an activity range from 150-200%),–
"Fc1ccc(-c2nc(-c3cccnc3)no2)cc1F [Example 10, 5-(3,4-difluorophenyl)-3-(pyridin-3-yl)-1,2,4-oxadiazole]",a (“a” denotes as activity range from 200-400%),–
"Fc1cccc(-c2nc(-c3cccnc3)no2)c1F [Example 11, 5-(2,3-difluorophenyl)-3-(pyridin-3-yl)-1,2,4-oxadiazole]",a (“a” denotes as activity range from 200-400%),–
